One test deals with T1, PepN (Escherichia coli, UniProt P04825).
T1 sequence (P04825 2-870): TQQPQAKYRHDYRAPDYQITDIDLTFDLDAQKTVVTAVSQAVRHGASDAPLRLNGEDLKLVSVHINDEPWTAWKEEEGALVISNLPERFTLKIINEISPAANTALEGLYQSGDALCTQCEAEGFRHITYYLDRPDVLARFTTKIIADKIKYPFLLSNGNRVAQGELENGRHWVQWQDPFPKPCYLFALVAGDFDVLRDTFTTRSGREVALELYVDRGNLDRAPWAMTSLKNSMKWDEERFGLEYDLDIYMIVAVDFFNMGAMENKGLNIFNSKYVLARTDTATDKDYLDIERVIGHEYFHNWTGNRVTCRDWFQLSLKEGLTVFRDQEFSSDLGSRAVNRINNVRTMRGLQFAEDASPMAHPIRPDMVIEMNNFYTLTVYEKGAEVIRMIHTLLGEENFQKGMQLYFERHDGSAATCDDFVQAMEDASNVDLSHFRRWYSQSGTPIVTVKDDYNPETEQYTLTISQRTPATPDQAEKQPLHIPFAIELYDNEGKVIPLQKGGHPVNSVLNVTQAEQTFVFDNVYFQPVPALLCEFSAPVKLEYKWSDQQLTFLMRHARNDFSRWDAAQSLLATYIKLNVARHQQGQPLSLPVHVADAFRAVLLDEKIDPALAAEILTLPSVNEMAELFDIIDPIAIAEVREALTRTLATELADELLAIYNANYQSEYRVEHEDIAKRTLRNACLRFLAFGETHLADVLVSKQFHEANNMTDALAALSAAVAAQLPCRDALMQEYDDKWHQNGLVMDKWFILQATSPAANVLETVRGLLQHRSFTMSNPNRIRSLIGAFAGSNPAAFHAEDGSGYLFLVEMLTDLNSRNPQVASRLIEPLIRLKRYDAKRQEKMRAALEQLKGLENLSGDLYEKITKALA
Description: HPLC (UV […] nm) of hydrolysis to blasticidin S. The test is classed as biochemical. The settings on record: 30 °C; 1 μM LBS overnight; pH 5 to 9 tested.

In another test the target is T2, PepN1 (Streptomyces lividans, UniProt Q11010).
T2 construct: gene pepN; closely located to PepN2 gene
T2 sequence (Q11010 1-857): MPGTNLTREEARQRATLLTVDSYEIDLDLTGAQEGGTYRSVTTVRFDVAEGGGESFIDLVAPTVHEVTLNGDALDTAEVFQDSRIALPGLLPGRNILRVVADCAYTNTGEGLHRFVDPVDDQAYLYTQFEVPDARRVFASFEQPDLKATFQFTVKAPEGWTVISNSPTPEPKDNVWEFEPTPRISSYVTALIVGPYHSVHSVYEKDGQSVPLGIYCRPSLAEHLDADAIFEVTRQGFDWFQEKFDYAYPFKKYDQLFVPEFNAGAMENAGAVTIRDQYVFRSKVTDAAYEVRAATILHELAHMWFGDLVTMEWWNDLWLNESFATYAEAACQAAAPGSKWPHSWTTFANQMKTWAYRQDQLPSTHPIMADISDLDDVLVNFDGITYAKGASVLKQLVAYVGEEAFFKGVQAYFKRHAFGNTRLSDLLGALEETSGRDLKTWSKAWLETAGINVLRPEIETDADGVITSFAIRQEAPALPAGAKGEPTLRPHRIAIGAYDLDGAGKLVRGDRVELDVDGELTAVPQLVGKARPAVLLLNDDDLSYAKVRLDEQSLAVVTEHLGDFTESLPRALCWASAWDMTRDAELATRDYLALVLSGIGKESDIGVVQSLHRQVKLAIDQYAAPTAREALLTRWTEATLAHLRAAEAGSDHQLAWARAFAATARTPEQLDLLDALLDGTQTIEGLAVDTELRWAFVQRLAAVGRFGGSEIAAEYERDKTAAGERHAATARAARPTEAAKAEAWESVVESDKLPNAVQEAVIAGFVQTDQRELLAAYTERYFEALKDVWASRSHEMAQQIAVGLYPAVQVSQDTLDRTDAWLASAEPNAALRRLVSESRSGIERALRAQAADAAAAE
Description: HPLC (UV […] nm) of hydrolysis to blasticidin S. In kind it is biochemical. The settings on record: pH 5 to 9 tested; 30 °C; hydrolysis of the beta-amide bond to leucine.

Turning to `CC(C)C[C@H](N)C(=O)N[C@@H](CCN(C)C(=N)N)CC(=O)N[C@H]1C=C[C@H](n2ccc(N)nc2=O)O[C@@H]1C(=O)O` [LBS, leucylblasticidin S], the “HPLC (UV 272 nm) of hydrolysis to blasticidin S” value on PepN was “PepN and PepN1 exhibited similar LBS hydrolyzing efficiency”; at PepN1, “PepN and PepN1 exhibited similar LBS hydrolyzing efficiency”.
